These results are taken from article PMC9968064, “First Synthesis of DBU-Conjugated Cationic Carbohydrate Derivatives and Investigation of Their Antibacterial and Antifungal Activity” (International Journal of Molecular Sciences, 2023).

Holding throughout (format): cell-based
The test system of assay [1] is Candida albicans (ATCC 10231). The assay is described as follows: MIC determination (antifungal susceptibility test). The note with it: Candida albicans, ATCC10231, tested range 6.25–100 µg/mL; read-out: MIC Candida albicans (ATCC 10231). The protocol:
(§1) The antimicrobial activity of twenty-two cationic hexopyranoside-amidinium salts (3, 10, 11, 12, 21, 22, 23, 24, 29, 30, 32, 37, 38, 45, 46, 47, 48, 49, 50, 51, 52 and 53) were compared in susceptibility tests (Table 2). The effectiveness of all compounds was tested on Staphylococcus aureus ssp. aureus (ATCC 6538), Escherichia coli (ATCC 8739) and Candida albicans (ATCC 10231). We tested the antimicrobial activity of the compounds at the concentration range of 6.25–100 µg/mL.
(§2) The detection of the antibacterial and antifungal effects of the tested compounds and the determination of the minimum inhibitory concentration (MIC) were carried out based on the method of CLSI [48] and Hungarian Pharmacopeia (chapters VIII. 2.6.12–13.).
(§3) For the antimicrobial studies, we used three human pathogens as test organisms: Candida albicans (ATCC 10231), Staphylococcus aureus subspecies aureus (ATCC 6538) and Escherichia coli (ATCC 8739).
(§4) Staphylococcus aureus subspecies aureus and Escherichia coli were cultured on tryptic soya agar (TSA) for 18–24 h at 37 °C. Candida albicans was cultured on Sabouraud dextrose agar (SDA) for 18–24 h at 37 °C. To obtain cells for suspension, we made cell suspensions from Staph. aureus, E. coli and C. albicans with the cotton swab suspension technique. The dilution of suspension was then made with 0.85% NaCl solution, absorbance being set to A600nm = 0.06. a volume of 10 μL of these suspensions contained ~4.5–6.0 × 10^4 colony forming unit (CFU) (bacteria) and ~1.5–2.0 × 10^3 CFU for yeast.
(§5) Tested agents were diluted with DMSO; the concentration of stock solutions was 4 mg/mL; and to ensure sterility, the closed sample containers were incubated at 35 °C for 1 h. The highest final concentration was 100 μg/mL.
Testing was performed in 24-well plates, and cell suspensions were prepared with 0.85% NaCl solution. Stock solutions were made from the agents with DMSO (100%). […] […] After inoculation, plates were incubated at 35 °C, and results were then read visually after 18–24 h. If microbial growth could not be detected, results were read visually after 72 h. If there was no growth after 72 h, incubation was continued till the fifth day of the experiment and the results were read visually and with plate reader at 600 nm after 120 h.
(§6) The MIC value of a compound was defined as the minimal concentration that inhibits the growth of bacteria and yeasts comparing to the control. The results of the antibacterial and antifungal tests were read visually after 24, 48, 72 and 120 h. The microbial growth was measured by plate reader at 600 nm after 120 h.

Assay [2] concerns Escherichia coli (ATCC 8739). The assay is described as follows: MIC determination (antibacterial susceptibility test, CLSI / Hungarian Pharmacopeia). The note with it: for MIC: Escherichia coli, ATCC8739, tested range 6.25–100 µg/mL; for MIC Escherichia coli (ATCC 8739): tested range 6.25–100 µg/mL. How it is done: as §1, §2, §3, §4, §5
(§7) Testing was performed in 24-well plates, and cell suspensions were prepared with 0.85% NaCl solution. Stock solutions were made from the agents with DMSO (100%). Final concentrations of used compounds were 6.25–100 µg/mL. […] After inoculation, plates were incubated at 35 °C, and results were then read visually after 18–24 h. If microbial growth could not be detected, results were read visually after 72 h. If there was no growth after 72 h, incubation was continued till the fifth day of the experiment and the results were read visually and with plate reader at 600 nm after 120 h.
as §6

The subject of assay [3] is Staphylococcus aureus ssp. aureus (ATCC 6538). Described as above. Conditions: for MIC: Staphylococcus aureus, ATCC6538, tested range 6.25–100 µg/mL; for MIC Staphylococcus aureus (ATCC 6538): tested range 6.25–100 µg/mL. The protocol:
as §1, §2, §3, §4, §5, §7, §6

For orientation: MIC means the least concentration at which growth counts as inhibited. In the case of `O[C@@H]1[C@H](OCc2ccccc2)[C@@H](Sc2ccccc2)O[C@H](C[N+]2=C3CCCCCN3CCC2)[C@H]1OCc1ccccc1` [Compound 49, 8-N-[phenyl 2,4-di-O-benzyl-6-deoxy-6-yl-1-thio-α-D-mannopyranoside]-1,8-diazabicyclo(5.4.0)undec-7-ene-chloride], the MIC in assay [1] was greater than 100 µg/mL. Further, in assay [2], the MIC was greater than 100 µg/mL and the “MIC Escherichia coli (ATCC 8739)” value is greater than 100 µg/mL. Also, in assay [3], the MIC is greater than 100 µg/mL and the “MIC Staphylococcus aureus (ATCC 6538)” value is recorded as greater than 100 µg/mL.
Regarding `CCS[C@H]1O[C@H](C[N+]2=C3CCCCCN3CCC2)[C@@H](O)[C@H](O)[C@H]1O` [Compound 47, 8-N-[ethyl 6-deoxy-6-yl-1-thio-α-D-glucopyranoside]-1,8-diazabicyclo(5.4.0)undec-7-ene-chloride], the minimal inhibitory concentration (MIC) in assay [1] is greater than 100 µg/mL. In addition, in assay [2], the MIC was greater than 100 µg/mL and the “MIC Escherichia coli (ATCC 8739)” value is greater than 100 µg/mL. Moreover, in assay [3], the MIC was greater than 100 µg/mL and the “MIC Staphylococcus aureus (ATCC 6538)” value was greater than 100 µg/mL.
On to `O=C(O[C@H]1[C@@H](OCc2ccccc2)[C@H](OCc2ccc3ccccc3c2)[C@@H](C[N+]2=C3CCCCCN3CCC2)O[C@@H]1Sc1ccccc1)c1ccccc1` [Compound 24], for which the MIC was no less than 100 µg/mL in assay [2] and 6.25 to 50 µg/mL in assay [3].
In the case of `O=C(O[C@H]1[C@@H](OCc2ccccc2)[C@H](O)[C@@H](C[N+]2=C3CCCCCN3CCC2)O[C@@H]1Sc1ccccc1)c1ccccc1` [Compound 52, 8-N-[phenyl 2-O-benzoyl-3-O-benzyl-6-deoxy-6-yl-1-thio-α-D-mannopyranoside]-1,8-diazabicyclo(5.4.0)undec-7-ene-chloride], the MIC in assay [1], in assay [2] and in assay [3] was greater than 100 µg/mL in each case.
As for `CCS[C@H]1O[C@H](C[N+]2=C3CCCCCN3CCC2)[C@@H](OCc2ccc3ccccc3c2)[C@@H](OC(=O)c2ccccc2)[C@H]1OC(=O)c1ccccc1` [Compound 30], in assay [2], the MIC is no less than 100 µg/mL.
As for `O[C@@H]1[C@H](O)[C@@H](Sc2ccccc2)O[C@H](C[N+]2=C3CCCCCN3CCC2)[C@H]1OCc1ccc2ccccc2c1` [Compound 51, 8-N-[phenyl 6-deoxy-6-yl-4-O-(2′-naphthyl)methyl-1-thio-α-D-mannopyranoside]-1,8-diazabicyclo(5.4.0)undec-7-ene-chloride], the MIC was greater than 100 µg/mL in assay [2] and 6.25 to 50 µg/mL in assay [3].
Take `O[C@H]1[C@@H](OCc2ccccc2)[C@H](OCc2ccc3ccccc3c2)[C@@H](C[N+]2=C3CCCCCN3CCC2)O[C@@H]1Sc1ccccc1` [Compound 53, 8-N-[phenyl 3-O-benzyl-6-deoxy-6-yl-4-O-(2′-naphthyl)methyl-1-thio-α-D-mannopyranoside]-1,8-diazabicyclo(5.4.0)undec-7-ene-acetate]: the MIC is 6.25 to 50 µg/mL in assay [1], greater than 100 µg/mL in assay [2] and 6.25 to 50 µg/mL in assay [3].
For `CCS[C@H]1O[C@H](C[N+]23CCN(CC2)CC3)[C@@H](OCc2ccc3ccccc3c2)[C@@H](OC(=O)c2ccccc2)[C@H]1OC(=O)c1ccccc1` [Compound 32], the MIC in assay [1] was greater than 100 µg/mL; in assay [2], no less than 100 µg/mL; in assay [3], 6.25 to 50 µg/mL.
For `CCS[C@H]1O[C@H](C[N+]2=C3CCCCCN3CCC2)[C@@H](OCc2ccc3ccccc3c2)[C@H](OC(=O)c2ccccc2)[C@H]1OC(=O)c1ccccc1` [Compound 11], in assay [1], the minimal inhibitory concentration (MIC) was greater than 100 µg/mL. Also, in assay [2], the MIC is greater than 100 µg/mL and the “MIC Escherichia coli (ATCC 8739)” value is reported as greater than 100 µg/mL. For the same molecule, in assay [3], the MIC is greater than 100 µg/mL and the “MIC Staphylococcus aureus (ATCC 6538)” value is on record as greater than 100 µg/mL.
In assay [2], `O[C@H]1[C@H](OCc2ccccc2)[C@H](OCc2ccccc2)[C@@H](Sc2ccccc2)O[C@@H]1C[N+]1=C2CCCCCN2CCC1` [Compound 50, 8-N-[phenyl 2,3-di-O-benzyl-6-deoxy-6-yl-1-thio-α-D-mannopyranoside]-1,8-diazabicyclo(5.4.0)undec-7-ene-chloride] registered an MIC greater than 100 µg/mL.
As to `CO[C@H]1O[C@H](C[N+]2=C3CCCCCN3CCC2)[C@@H](OCc2ccccc2)[C@H](O)[C@H]1O` [Compound 45, 8-N-[methyl 6-deoxy-6-yl-4-O-benzyl-α-D-glucopyranoside]-1,8-diazabicyclo(5.4.0)undec-7-ene-chloride], the MIC in assay [1] is greater than 100 µg/mL. Also, in assay [2], the MIC was greater than 100 µg/mL and the “MIC Escherichia coli (ATCC 8739)” value is greater than 100 µg/mL. Moreover, in assay [3], the MIC is greater than 100 µg/mL and the “MIC Staphylococcus aureus (ATCC 6538)” value is greater than 100 µg/mL.
Turning to `CCS[C@H]1O[C@H](C[N+]2=C3CCCCCN3CCC2)[C@@H](OCc2ccc3ccccc3c2)[C@H](O)[C@H]1O` [Compound 46, 8-N-[ethyl 6-deoxy-6-yl-4-O-(2′-naphthyl)methyl-1-thio-α-D-glucopyranoside]-1,8-diazabicyclo(5.4.0)undec-7-ene-chloride], the MIC in assay [1], in assay [2] and in assay [3] was greater than 100 µg/mL throughout. Besides, in assay [2], the “MIC Escherichia coli (ATCC 8739)” value is reported as greater than 100 µg/mL. The “MIC Staphylococcus aureus (ATCC 6538)” value in assay [3] was greater than 100 µg/mL.
With `c1ccc(CO[C@H]2[C@H](OCc3ccccc3)[C@@H](Sc3ccccc3)O[C@H](C[N+]3=C4CCCCCN4CCC3)[C@H]2OCc2ccc3ccccc3c2)cc1` [Compound 37], the minimum inhibitory concentration (MIC) in assay [1] and in assay [2] was greater than 100 µg/mL each time.
As to `O=C(O[C@H]1[C@H](OC(=O)c2ccccc2)[C@@H](Sc2ccccc2)O[C@H](C[N+]2=C3CCCCCN3CCC2)[C@H]1OCc1ccc2ccccc2c1)c1ccccc1` [Compound 38], the MIC in assay [1] was greater than 100 µg/mL. In assay [2], the minimum inhibitory concentration (MIC) is greater than 100 µg/mL and the “MIC Escherichia coli (ATCC 8739)” value is listed as greater than 100 µg/mL. For the same molecule, in assay [3], the MIC was greater than 100 µg/mL and the “MIC Staphylococcus aureus (ATCC 6538)” value is reported as greater than 100 µg/mL.
In the case of `CCS[C@H]1O[C@H](C[N+]2=C3CCCCCN3CCC2)[C@@H](O)[C@H](OCc2ccccc2)[C@H]1OCc1ccccc1` [Compound 48, 8-N-[ethyl 2,3-di-O-benzyl-6-deoxy-6-yl-1-thio-α-D-glucopyranoside]-1,8-diazabicyclo(5.4.0)undec-7-ene-chloride], the MIC in assay [2] was greater than 100 µg/mL.
On to `O=C(O[C@@H]1[C@H](OC(=O)c2ccccc2)[C@@H](Sc2ccccc2)O[C@H](C[N+]2=C3CCCCCN3CCC2)[C@H]1OCc1ccc2ccccc2c1)c1ccccc1` [Compound 23], for which the minimal inhibitory concentration (MIC) in assay [1], in assay [2] and in assay [3] was greater than 100 µg/mL throughout.
